Read-outs that look alike come from different tables or passages of the source.
Legend:
[1] = system: platelet aggregation induced by PAF; experiment: Test 1: Inhibition of platelet aggregation induced by PAF; assay type: cell-based; details: rabbit platelet rich plasma, aggregation induced by PAF (C₁₈) 16 nM final, Born nephelometric technique, read-out: IC₅₀
Method: Test 1: Inhibition of platelet aggregation induced by PAF.
The blood is obtained by cardiac puncture of male New Zealand albino rabbits (between 2 and 2.5 Kg of weight) and coagulatlon is prevented by adding 1 part of 3.16% sodium citrate dihydrate in 9 parts of blood. The platelet rich plasma (PRP) is prepared by blood centrifugation at 250xg for 10 min. at 4°C and it is diluted with platelet poor plasma (PPP) obtained by additional centrifugation at 3000xg for 10 min. The amount of platelets is adjusted to […]. The platelet aggregation induced by PAF (C₁₈, prepared in our laboratory) (16 nM, final) is determined by the Born nephelometric technique (J. Physiol., 1962 162, 67) using a aggregometer Chrono-log 500. The activities of the inhibitors are expressed as IC₅₀, that is to say the concentration of the drug needed to inhibit the platelet aggregation in a 50%.

[2] = system: hypotension induced by PAF; experiment: Test 2: Inhibition of the hypotensive effect induced by PAF in normotense rats; assay type: in vivo; details: anesthetized male Sprage Dawley rats; compounds given through the femoral vein 3 min. before PAF (0.5 mcg/Kg, i.v.); average arterial pressure
Method: Test 2 - Inhibition of the hypotensive effect induced by PAF in normotense rats. Male Sprage Dawley rats, of 180-220 g of weight, anesthetized with sodium pentobarbital (50 mg/Kg, i.p. 1 mL/100 g) have been used. In order to measure the average arterial pressure, a polyethylene catheter is introduced into the carotid artery. The arterial pressure is recorded with the help of a transducer connected with a […] Beckman polygraph. […]

| IC50 ([1]; Oryctolagus cuniculus) [µM] | IC50 [1] [µM] | Structure (SMILES) | CI₅₀ [2] |
| --- | --- | --- | --- |
| 1.1 | – | CCCCCCCCCCCCCCCCCC1CCC(COC(=O)N(Cc2cccc[n+]2C)C(C)=O)O1 (mixture of isomers) [Compound 5, (±)-cis,trans-2-[N-acetyl-N-[((5-heptadecyl-2-tetrahydrofuranyl)methoxy)carbonyl]aminomethyl]-1-methylpiridinium iodide] | 0,8 mg/Kg,i.v. |
| 3.1 | – | CCCCCCCCCCCCCCCC1CCC(COC(=O)CCCCC[n+]2ccsc2)O1 (mixture of isomers) [Compound 12, (±)-cis,trans-3-[6-[(5-pentadecyl-2-tetrahydrofuranyl)methoxy]-6-oxohexyl] tiazolium 4-methylbenzenesulfonate] | – |
| 1.3 | – | CCCCCCCCCCCCCCCC1CCC(COCCCCCC[n+]2ccsc2)O1 (mixture of isomers) [Compound 13, (±)-cis,trans-3-[6-[(5-pentadecyl-2-tetrahydrofuranyl)methoxy]hexyl]tiazolium 4-methylbenzenesulfonate] | – |

Second part, the compound before the results:

| Structure (SMILES) | IC50 ([1]; Oryctolagus cuniculus) [µM] | IC50 [1] [µM] | CI₅₀ [2] |
| --- | --- | --- | --- |
| CCCCCCCCCCCCCCCCCC1CCC(COC(=O)N(Cc2cccc[n+]2CC)C(=O)OCC)O1 (mixture of isomers) [Compound 7, (±)-cis,trans-2-[N-ethoxycarbonyl-N-[((5-heptadecyl-2-tetrahydrofuranyl)methoxy)carbonyl]aminomethyl]-1-ethylpyridinium iodide] | 0.13 | – | 0,34 mg/Kg,i.v. |
| CCCCCCCCCCCCCCCC1CCC(COC(=O)N(Cc2cccc[n+]2CC)C(C)=O)O1 (mixture of isomers) [Compound 11, (±)-cis,trans-2-[N-acetyl-N-[((5-pentadecyl-2-tetrahydrofuranyl)methoxy)carbonyl]aminomethyl]-1-ethylpyridinium iodide] | 0.095 | – | 0,15 mg/Kg,i.v. |
| CCCCCCCCCCCCCCCCCNC(=O)OCC1CCC(COC(=O)N(Cc2cccc[n+]2CC)C(C)=O)O1 (mixture of isomers) [Compound 16, (±)-cis,trans-2-[N-acetyl-N-[((5-(((N-heptadecylcarbamoyl)oxy)methyl)-2-tetrahydrofuranyl)methoxy)carbonyl]aminomethyl] -1-ethylpiridinium iodide] | 0.04 | – | 0,064 mg/Kg,i.v. |
| CCCCCCCCCCCCCCCNC(=O)OCC1CCC(COC(=O)N(Cc2cccc[n+]2CC)C(C)=O)O1 (mixture of isomers) [Compound 19, (±)-cis,trans-2-[N-acetyl-N-[((5-(((N-pentadecylcarbamoyl)oxy)methyl)-2-tetrahydrofuranyl)methoxy)carbonyl]aminomethyl] -1-ethylpiridinium iodide] | 0.054 | – | 0,098 mg/Kg,i.v. |
| CCCCCCCCCCCCCCCCOCC1CCC(COC(=O)N(Cc2cccc[n+]2CC)C(C)=O)O1 (mixture of isomers) [Compound 25, (±)-cis,trans-2-[N-acetyl-N-[((5-((hexadecyloxy)methyl)-2-tetrahydrofuranyl)methoxy)carbonyl]aminomethyl]-1-ethylpyridinium iodide] | 0.074 | – | 0,036 mg/Kg,i.v. |
| CCCCCCCCCCCCCCCCC[C@@H]1CC[C@H](COC(=O)N(Cc2cccc[n+]2CC)C(C)=O)O1.[I-] (racemic) [Compound 3, (±)-cis,trans-2-[N-acetyl-N-[((5-heptadecyl-2-tetrahydrofuranyl)methoxy)carbonyl]aminomethyl]-1-ethylpiridinium iodide] | – | 0.071 | 0,15 mg/Kg,i.v. |
| CCCCCCCCCCCCCCCCC[C@@H]1CC[C@H](COC(=O)N(Cc2cccc[n+]2CC)C(C)=O)O1.[Cl-] (racemic) [Compound 4, (±)-cis,trans-2-[N-acetyl-N-[((5-heptadecyl-2-tetrahydrofuranyl)methoxy)carbonyl]aminomethyl]-1-ethylpiridinium chloride] | – | 0.19 | 0,19 mg/Kg,i.v. |

Source: patent EP0353777A2, “New 2,5-disubstituted tetrahydrofuran derivatives” (J. URIACH & CIA. S.A., priority 1988, dated 1990)
